According to patent US20140378454A1, “NOVEL METHODS” (XSPRAY MICROPARTICLES AB, priority 2012, published 2014):
Where a name gives a salt, the structure may show the parent alone.

Legend:
Format in all cases: physicochemical
[1] = Dissolution measurement assay (apparent solubility) in FaSSIF, pH 6.5; parameters: AUC/90 min / AUC/80 min: concentration or dose not given beside the values; conditions: for AUC/80 min: during 80 min dissolution
[2] = Dissolution rate measurement in sink conditions, flow through cell system, FaSSIF, 37° C.; conditions: sink condition in FaSSIF; for Initial Dissolution Rate: initial slope of accumulated % solubilized vs time, 0 to 10 minutes
Description: The temperature of the apparatus was set to 37° C. The amount of powder added into the cell depends on drug load of the powder: The exact amount of powder was calculated from results obtained from drug load analysis of the powders.
Typically, 3.5 to 7 mg PKI was added into the flow through cell and a flow rate between 8 and 16 ml medium/min (preferably about 8 ml medium/min) was pumped through the powder. One ml samples of the medium passing through the cell were collected at predetermined times. […] Samples were taken after 0, 0.5, 1, 1.5, 2, 3, 4, 5, 6, 7, 8, 9, 10, 15, 20, 25, 30, 35 and 40 min from the moment the medium comes out from the flow through cell. The accumulated % solubilized of the amount of active substance added into the flow through cell was calculated and plotted against time (min). The initial slope (“initial dissolution rate”) of the graph was estimated, as measured during 0 to 10 minutes, and taken as the dissolution rate of the material in sink condition at 37° C. in the given dissolution medium.

[3] = Dissolution measurement assay (apparent solubility) in FeSSIF, pH 5
Description: The method consists of adding the wished amount of powder of hybrid nanoparticles into a glass vial and then pouring in it the appropriate medium (typically FaSSIF, FeSSIF or SGF). The medium was prepared in accordance with the manufacturer's instructions. The amount of powder added depends on the wished “total PKI concentration”. […] For other experiments, the drug load was first estimated by HPLC and the amount of powder to obtain the drug concentration was calculated.
Typically, the powder was added in a 8 mL glass bottle and 7 mL of solution was added (typically FaSSIF, FeSSIF or SGF). The glass bottle was put on a shaker (approximately 1 rotation per minute) for dissolution. Samples of 500 μl where taken after different times, and subsequently centrifuged at approximately 15000 g for 3 minutes. The resulting supernatant was then analyzed by HPLC (C18 column Eclipse, 4.6 mm×15 cm, 1 mL/min, detection at 254-400 nM. Generally samples were taken after 5, 30 and 90 min and eventually 150 min.
A number of experiments were carried out, wherein nilotinib base or nilotinib HCl represented the protein kinase inhibitor. The experiments were carried out by measuring concentration of solubilized PKI (mg/L) after 5, 30 and 90 minutes dissolution in a solution at about pH 6.5, namely FaSSIF (Fasted State Simulated Intestinal Fluid). […] Samples of the solution were taken at various time intervals and the amount of protein kinase inhibitor was measured by the dissolution measurement assay described above.

With `CNC(=O)c1ccccc1Sc1ccc2c(/C=C/c3ccccn3)n[nH]c2c1` [Exp 157, axitinib] the “Conc (mg/L) 3 min” value ([1]; 3 min, pH 6.5) was 0.6 mg/L, the “Conc (mg/L) 40 min” value ([1]; 40 min, pH 6.5) was 0.6 mg/L and the “Conc (mg/L) 80 min” value ([1]; 80 min, pH 6.5) was 0.6 mg/L. The “% solubilized 40 min.” value ([1]; axitinib, 40 min dissolution, FaSSIF pH 6.5) was 0.1% and the AUC/80 min ([1]; axitinib, FaSSIF pH 6.5) was 47 Mg/min/L.

In the case of `C[C@@H](Oc1cc(-c2cnn(C3CCNCC3)c2)cnc1N)c1c(Cl)ccc(F)c1Cl` [Exp 150, crizotinib], the “Conc (mg/L) 3 min” value ([1]; 3 min, pH 6.5) is reported as 89.3 mg/L, the “% solubilized 40 min.” value ([1]; 40 min, pH 6.5) is reported as 22.7% and the “Conc (mg/L) 40 min” value ([1]; 40 min, pH 6.5) is reported as 226.5 mg/L. For the same compound, the “Conc (mg/L) 80 min” value ([1]; 80 min, pH 6.5) was 295.6 mg/L.

In the case of `CS(=O)(=O)CCNCc1ccc(-c2ccc3ncnc(Nc4ccc(OCc5cccc(F)c5)c(Cl)c4)c3c2)o1` [Exp 530, lapatinib ditosylate], the “Initial Dissolution Rate” value [2] is reported as 0.103.

For `COc1cc2ncnc(Nc3ccc(F)c(Cl)c3)c2cc1OCCCN1CCOCC1` [Exp 131, gefitinib], the “Conc (mg/L) 3 min” value ([1]; concentration of gefitinib after 3 min dissolution, FaSSIF pH 6.5) was 121.8 mg/L, the “Conc (mg/L) 40 min” value ([1]; concentration of gefitinib after 40 min dissolution, FaSSIF pH 6.5) was 153.1 mg/L and the “Conc (mg/L) 80 min” value ([1]; concentration of gefitinib after 80 min dissolution, FaSSIF pH 6.5) was 148.1 mg/L. The “% solubilized 40 min.” value ([1]; gefitinib, 40 min dissolution, FaSSIF pH 6.5) was 15.3% and the AUC/80 min ([1]; gefitinib, FaSSIF pH 6.5) was 5967 Mg/min/L.

For `C#Cc1cccc(Nc2ncnc3cc(OCCOC)c(OCCOC)cc23)c1` [Exp 510, erlotinib HCl], the “Initial Dissolution Rate” value [2] was 0.303.

For `Cc1cn(-c2cc(NC(=O)c3ccc(C)c(Nc4nccc(-c5cccnc5)n4)c3)cc(C(F)(F)F)c2)cn1` [Exp 2, Nilotinib HCl], the “Conc (mg/L) 5 min” value ([1]; concentration of nilotinib HCl, FaSSIF solution (pH 6.5), 5 minutes dissolution, HCl) was 0.2 mg/L, the “Conc (mg/L) 30 min” value ([1]; concentration of nilotinib HCl, FaSSIF solution (pH 6.5), 30 minutes dissolution, HCl) was 0.2 mg/L and the “Conc (mg/L) 90 min” value ([1]; concentration of nilotinib HCl, FaSSIF solution (pH 6.5), 90 minutes dissolution, HCl) was 0.2 mg/L. The “% solubilized 30 min.” value ([1]; nilotinib HCl, FaSSIF solution (pH 6.5), 30 minutes dissolution, HCl) was 0.04% and the “AUC/90 min Mg/min/L” value ([1]; nilotinib HCl, FaSSIF solution (pH 6.5), Area Under the Curve during 90 minutes dissolution, HCl) was 23.5 Mg/min/L.

In the case of `C#Cc1cccc(Nc2ncnc3cc(OCCOC)c(OCCOC)cc23)c1` [Exp 58, erlotinib HCl], the “Conc (mg/L) 5 min” value ([1]; 5 min, pH 6.5) is reported as 28.9 mg/L, the “Conc (mg/L) 30 min” value ([1]; 30 min, pH 6.5) is reported as 6.25 mg/L and the “Conc (mg/L) 90 min” value ([1]; 90 min, pH 6.5) is reported as 4.6 mg/L. The “% solubilized 30 min.” value ([1]; erlotinib HCl, FaSSIF pH 6.5, 30 min dissolution) was 0.6% and the “AUC/90 min Mg/min/L” value ([1]; erlotinib HCl, FaSSIF pH 6.5, during 90 min dissolution) was 837 Mg/min/L.

For `C#Cc1cccc(Nc2ncnc3cc(OCCOC)c(OCCOC)cc23)c1` [Exp 69, Erlotinib HCl], the “Conc (mg/L) 5 min” value ([3]; concentration of erlotinib HCl, FeSSIF solution (pH 5), 5 minutes dissolution) was 156.8 mg/L, the “Conc (mg/L) 30 min” value ([3]; concentration of erlotinib HCl, FeSSIF solution (pH 5), 30 minutes dissolution) was 189.9 mg/L and the “Conc (mg/L) 90 min” value ([3]; concentration of erlotinib HCl, FeSSIF solution (pH 5), 90 minutes dissolution) was 196 mg/L. The “% solubilized 30 min.” value ([3]; erlotinib HCl, FeSSIF pH 5, 30 min dissolution) was 19.0% and the “AUC/90 min Mg/min/L” value ([3]; erlotinib HCl, FeSSIF pH 5, during 90 min dissolution) was 16303 Mg/min/L.

In the case of `CS(=O)(=O)CCNCc1ccc(-c2ccc3ncnc(Nc4ccc(OCc5cccc(F)c5)c(Cl)c4)c3c2)o1` [Exp 110, lapatinib base], the “Conc (mg/L) 5 min” value ([1]; concentration of lapatinib after 5 min dissolution, FaSSIF pH 6.5) is reported as 2.9 mg/L, the “Conc (mg/L) 30 min” value ([1]; concentration of lapatinib after 30 min dissolution, FaSSIF pH 6.5) is reported as 6.0 mg/L and the “Conc (mg/L) 90 min” value ([1]; concentration of lapatinib after 90 min dissolution, FaSSIF pH 6.5) is reported as 6.5 mg/L. For the same compound, the “% solubilized 30 min.” value ([1]; lapatinib, 30 min dissolution, FaSSIF pH 6.5) was 0.3% and the AUC/90 min ([1]; lapatinib, during 90 min dissolution, FaSSIF pH 6.5) was 494 Mg/min/L.

With `CNC(=O)c1cc(Oc2ccc(NC(=O)Nc3ccc(Cl)c(C(F)(F)F)c3)cc2)ccn1.Cc1ccc(S(=O)(=O)O)cc1` [Experiment 560] the “Accumulated % of solubilized of remaining active substance at a given time (min)” value ([2]; 0 min) was 0.2%, the “Accumulated % of solubilized of remaining active substance at a given time (min)” value ([2]; 0.5 min) was 0.4% and the “Accumulated % of solubilized of remaining active substance at a given time (min)” value ([2]; 1 min) was 0.7%. For the same compound, the “Accumulated % of solubilized of remaining active substance at a given time (min)” value ([2]; 1.5 min) was 1.0%, the “Accumulated % of solubilized of remaining active substance at a given time (min)” value ([2]; 2 min) was 1.3% and the “Accumulated % of solubilized of remaining active substance at a given time (min)” value ([2]; 3 min) was 1.8%. For the same compound, the “Accumulated % of solubilized of remaining active substance at a given time (min)” value ([2]; 4 min) was 2.2%, the “Accumulated % of solubilized of remaining active substance at a given time (min)” value ([2]; 5 min) was 2.6% and the “Accumulated % of solubilized of remaining active substance at a given time (min)” value ([2]; 6 min) was 3.0%. For the same compound, the “Accumulated % of solubilized of remaining active substance at a given time (min)” value ([2]; 7 min) was 3.4%, the “Accumulated % of solubilized of remaining active substance at a given time (min)” value ([2]; 8 min) was 3.8% and the “Accumulated % of solubilized of remaining active substance at a given time (min)” value ([2]; 9 min) was 4.2%. The “Accumulated % of solubilized of remaining active substance at a given time (min)” value ([2]; 10 min) was 4.6%, the “Accumulated % of solubilized of remaining active substance at a given time (min)” value ([2]; 20 min) was 8.8% and the “Accumulated % of solubilized of remaining active substance at a given time (min)” value ([2]; 30 min) was 12.6%. The “Accumulated % of solubilized of remaining active substance at a given time (min)” value ([2]; 40 min) was 16.4%.

For `CCCS(=O)(=O)Nc1ccc(F)c(C(=O)c2c[nH]c3ncc(-c4ccc(Cl)cc4)cc23)c1F` [Exp 164, vemurafenib], the “Conc (mg/L) 3 min” value ([1]; 3 min, pH 6.5) was 0.3 mg/L, the “% solubilized 40 min.” value ([1]; 40 min, pH 6.5) was 0.1% and the “Conc (mg/L) 40 min” value ([1]; 40 min, pH 6.5) was 0.3 mg/L. For the same compound, the “Conc (mg/L) 80 min” value ([1]; 80 min, pH 6.5) was 0.4 mg/L.
